Test results reported in patent US6960597B2, “Aza-bridged-bicyclic amino acid derivatives as α4 integrin antagonists” (Orth-McNeil Pharmaceutical, Inc., priority 2000, dated 2005).
Like-named read-outs stand apart in the source and are kept apart here.

Columns and labels:
[1] = molecular target: T1, α4β1 integrin receptor (Homo sapiens, UniProt P05556+P13612); experiment: Ramos Cell Adhesion Assay (α4β1 Mediated Adhesion/VCAM-1); format: cell-based
T1 construct: Ramos Cell Adhesion Assay (α4β1 Mediated Adhesion/VCAM-1); endogenous in cells; host or cells: Ramos cells
Method: Ramos Cell Adhesion Assay (α4β1 Mediated Adhesion/VCAM-1)
(§1) Immulon 96 well plates (Dynex) were coated with 100 μL recombinant hVCAM-1 at 4.0 μg/mL in 0.05 M NaCO3 buffer pH 9.0 overnight at 4° C. (R&D Systems). Plates were washed 3 times in PBS with 1% BSA and blocked for 1 h @ room temperature in this buffer. PBS was removed and compounds to be tested (50 μL) were added at 2× concentration. Ramos cells, (50 μL at 2×10^6/mL) labeled with 5 μM Calcein AM (Molecular Probes) for 1 h at 37° C., were added to each well and allowed to adhere for 1 h at room temperature. Plates were washed 3× in PBS+1% BSA and cells were lysed for 15 minutes in 100 μL of 1 M Tris pH 8.0 with 1% SDS. The plate was read at 485 nm excitation and 530 nm emission.

[2] = molecular target: T2, human α4β7 (Homo sapiens, UniProt P13612+P26010); experiment: α4β7-K562 Cell Adhesion Assay (α4β7 Mediated Adhesion/VCAM-1); format: cell-based
T2 construct: expressed in transfected cells
T2 sequence (P13612 34-1032): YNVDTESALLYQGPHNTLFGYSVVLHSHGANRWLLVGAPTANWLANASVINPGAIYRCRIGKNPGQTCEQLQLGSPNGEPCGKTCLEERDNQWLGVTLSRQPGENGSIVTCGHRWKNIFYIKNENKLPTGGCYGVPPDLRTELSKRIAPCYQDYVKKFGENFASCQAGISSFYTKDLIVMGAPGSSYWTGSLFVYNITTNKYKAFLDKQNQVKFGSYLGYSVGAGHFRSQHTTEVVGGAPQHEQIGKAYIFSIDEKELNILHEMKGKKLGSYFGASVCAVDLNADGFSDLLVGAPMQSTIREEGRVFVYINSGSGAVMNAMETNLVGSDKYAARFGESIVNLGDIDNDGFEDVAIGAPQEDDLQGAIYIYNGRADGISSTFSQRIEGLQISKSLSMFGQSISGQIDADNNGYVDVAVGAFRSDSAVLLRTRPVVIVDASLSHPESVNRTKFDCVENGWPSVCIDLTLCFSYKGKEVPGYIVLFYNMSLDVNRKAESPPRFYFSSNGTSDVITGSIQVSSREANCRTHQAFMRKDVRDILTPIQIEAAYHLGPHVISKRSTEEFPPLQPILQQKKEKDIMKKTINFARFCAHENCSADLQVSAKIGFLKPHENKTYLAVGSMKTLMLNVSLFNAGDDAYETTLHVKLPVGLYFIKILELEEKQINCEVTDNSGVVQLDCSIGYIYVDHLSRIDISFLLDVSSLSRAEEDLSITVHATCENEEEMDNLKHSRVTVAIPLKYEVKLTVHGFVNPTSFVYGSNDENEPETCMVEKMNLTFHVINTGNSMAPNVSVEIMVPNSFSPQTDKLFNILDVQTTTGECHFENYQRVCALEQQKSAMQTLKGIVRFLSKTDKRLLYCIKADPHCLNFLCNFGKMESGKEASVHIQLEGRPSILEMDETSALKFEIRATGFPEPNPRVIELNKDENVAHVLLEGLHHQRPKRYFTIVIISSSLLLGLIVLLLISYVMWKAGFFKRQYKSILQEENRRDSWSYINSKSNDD
T2 sequence (P26010 20-798): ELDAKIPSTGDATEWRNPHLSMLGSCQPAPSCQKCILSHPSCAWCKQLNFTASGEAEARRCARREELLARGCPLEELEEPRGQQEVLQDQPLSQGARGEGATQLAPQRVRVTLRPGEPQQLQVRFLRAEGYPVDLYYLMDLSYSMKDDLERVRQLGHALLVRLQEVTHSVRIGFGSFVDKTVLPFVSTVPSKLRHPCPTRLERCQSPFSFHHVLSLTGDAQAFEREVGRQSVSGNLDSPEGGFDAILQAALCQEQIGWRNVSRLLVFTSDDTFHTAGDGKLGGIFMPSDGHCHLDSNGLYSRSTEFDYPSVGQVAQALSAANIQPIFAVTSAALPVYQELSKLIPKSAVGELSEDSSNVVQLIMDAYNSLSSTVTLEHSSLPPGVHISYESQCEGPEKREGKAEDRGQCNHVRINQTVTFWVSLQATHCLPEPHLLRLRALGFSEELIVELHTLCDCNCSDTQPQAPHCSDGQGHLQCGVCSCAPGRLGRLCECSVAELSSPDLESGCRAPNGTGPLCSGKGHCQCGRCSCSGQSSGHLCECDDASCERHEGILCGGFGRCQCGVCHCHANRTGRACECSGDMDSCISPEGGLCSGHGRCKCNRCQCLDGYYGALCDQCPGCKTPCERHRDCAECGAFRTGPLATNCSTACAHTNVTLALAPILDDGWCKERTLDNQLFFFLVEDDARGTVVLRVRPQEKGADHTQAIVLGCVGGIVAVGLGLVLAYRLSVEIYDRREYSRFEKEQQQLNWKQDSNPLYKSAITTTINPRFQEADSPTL
Method: α4β7-K562 Cell Adhesion Assay (α4β7 Mediated Adhesion/VCAM-1)
as §1, with “A stable cell line of K562 cells expressing human α4β7,” for “Ramos cells,”

[3] = Table I, racemic mixtures and resolved (S,S) and (R,S) diastereomers, read-out: Antagonist IC50 Activity α4β1
[4] = Table III, read-out: Inhibition of Binding of Ramos Cells to Immobilized VCAM-1 IC50
[5] = Table I, racemic mixtures and resolved (S,S) and (R,S) diastereomers, read-out: Antagonist IC50 Activity α4β7
[6] = Table IV, read-out: Inhibition of Binding of K562 Cells to Immobilized VCAM-1 IC50
[7] = Table IV, μM, read-out: Inhibition of Binding of K562 Cells to Immobilized VCAM-1 IC50

T1 sequence (P05556 21-798, one chain of several): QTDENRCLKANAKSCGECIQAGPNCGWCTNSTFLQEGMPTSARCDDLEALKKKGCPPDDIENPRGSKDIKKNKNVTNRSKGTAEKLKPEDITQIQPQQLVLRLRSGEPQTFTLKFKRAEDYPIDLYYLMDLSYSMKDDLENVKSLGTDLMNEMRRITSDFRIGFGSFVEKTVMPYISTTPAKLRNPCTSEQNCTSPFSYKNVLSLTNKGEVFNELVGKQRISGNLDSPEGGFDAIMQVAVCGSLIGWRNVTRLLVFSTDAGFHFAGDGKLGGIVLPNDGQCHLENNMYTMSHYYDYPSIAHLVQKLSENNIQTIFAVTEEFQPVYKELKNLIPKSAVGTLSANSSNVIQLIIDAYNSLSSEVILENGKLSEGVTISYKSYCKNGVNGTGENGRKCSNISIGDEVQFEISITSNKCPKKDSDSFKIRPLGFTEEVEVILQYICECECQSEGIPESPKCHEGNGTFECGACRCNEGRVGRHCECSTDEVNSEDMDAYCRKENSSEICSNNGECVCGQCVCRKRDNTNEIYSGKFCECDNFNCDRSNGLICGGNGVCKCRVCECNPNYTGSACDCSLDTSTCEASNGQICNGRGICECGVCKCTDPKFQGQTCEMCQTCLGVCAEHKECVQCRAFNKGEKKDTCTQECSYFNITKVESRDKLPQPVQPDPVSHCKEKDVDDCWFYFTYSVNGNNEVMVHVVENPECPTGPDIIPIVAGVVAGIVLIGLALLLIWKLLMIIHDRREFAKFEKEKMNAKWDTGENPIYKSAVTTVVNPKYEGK

IC50 [1, 3] [nM]	IC50 [1, 4] [nM]	IC50 [2, 5] [µM]	IC50 [2, 6] [µM]	IC50 [2, 7] [µM]	Structure (SMILES)
222	222	0.421			O=C(Nc1ccc(C[C@H](NC(=O)[C@H]2C3CCC(CC3)N2S(=O)(=O)c2ccccc2)C(=O)O)cc1)c1c(Cl)cccc1Cl [Cpd 6b, 4-[(2,6-dichlorobenzoyl)amino]-N-[[(3R)-2-(phenylsulfonyl)-2-azabicyclo[2.2.2]oct-3-yl]carbonyl]-L-phenylalanine]
	81		0.343		COc1cccc(OC)c1-c1ccc(C[C@H](NC(=O)[C@@H]2C3CCC(CC3)N2S(=O)(=O)c2ccccc2)C(=O)O)cc1 [Cpd 8, 4-(2,6-dimethoxyphenyl)-N-[[(3S)-2-(phenylsulfonyl)-2-azabicyclo[2.2.2]oct-3-yl]carbonyl]-L-phenylalanine]
	267			> 5	Cc1ccc(S(=O)(=O)N2C3CCC(CC3)C2C(=O)N[C@@H](Cc2ccc(NC(=O)c3ccccc3C)cc2)C(=O)O)cc1 (stereo partly drawn) [Cpd 9, 4-[(2-methylbenzoyl)amino]-N-[[2-[(4-methylphenyl)sulfonyl]-2-azabicyclo[2.2.2]oct-3-yl]carbonyl]-(α^1S)-phenylalanine]
	145		4.41		Cc1ccc(S(=O)(=O)N2C3CCC(CC3)C2C(=O)N[C@@H](Cc2ccc(NC(=O)c3ccccc3Cl)cc2)C(=O)O)cc1 (stereo partly drawn) [Cpd 10, 4-[(2-chlorobenzoyl)amino]-N-[[2-[(4-methylphenyl)sulfonyl]-2-azabicyclo[2.2.2]oct-3-yl]carbonyl]-L-phenylalanine]
	179		1.49		Cc1ccc(S(=O)(=O)N2C3CCC(CC3)C2C(=O)N[C@@H](Cc2ccc(NC(=O)c3c(F)cccc3F)cc2)C(=O)O)cc1 (stereo partly drawn) [Cpd 11, 4-[(2,6-difluorobenzoyl)amino]-N-[[2-[(4-methylphenyl)sulfonyl]-2-azabicyclo[2.2.2]oct-3-yl]carbonyl]-L-phenylalanine]
	104		1.08		Cc1ccc(S(=O)(=O)N2C3CCC(CC3)C2C(=O)N[C@@H](Cc2ccc(NC(=O)c3ccccc3C(F)(F)F)cc2)C(=O)O)cc1 (stereo partly drawn) [Cpd 12, 4-[[2-(trifluoromethyl)benzoyl]amino]-N-[[2-[(4-methylphenyl)sulfonyl]-2-azabicyclo[2.2.2]oct-3-yl]carbonyl]-L-phenylalanine]
	119			> 10	Cc1ccc(S(=O)(=O)N2C3CCC(CC3)C2C(=O)N[C@@H](Cc2ccc(NC(=O)c3ccccc3OC(F)(F)F)cc2)C(=O)O)cc1 (some centres unmarked) [Cpd 13]
	160		0.913		Cc1ccc(S(=O)(=O)N2C3CCC(CC3)C2C(=O)N[C@@H](Cc2ccc(NC(=O)c3ccccc3Br)cc2)C(=O)O)cc1 (stereo partly drawn) [Cpd 14, 4-[(2-bromobenzoyl)amino]-N-[[2-[(4-methylphenyl)sulfonyl]-2-azabicyclo[2.2.2]oct-3-yl]carbonyl]-L-phenylalanine]
	67		1.39		O=C(Nc1ccc(C[C@H](NC(=O)C2C3CCC(CC3)N2S(=O)(=O)c2ccccc2)C(=O)O)cc1)c1c(F)cccc1F (stereo partly drawn) [Cpd 15, 4-[(2,6-difluorobenzoyl)amino]-N-[[2-(phenylsulfonyl)-2-azabicyclo[2.2.2]oct-3-yl]carbonyl]-L-phenylalanine]
153	153	2.09			O=C(Nc1ccc(C[C@H](NC(=O)[C@@H]2C3CCC(C3)N2S(=O)(=O)c2ccccc2)C(=O)O)cc1)c1c(Cl)cccc1Cl (stereo partly drawn) [Cpd 16a, 4-[(2,6-dichlorobenzoyl)amino]-N-[[(3S)-2-(phenylsulfonyl)-2-azabicyclo[2.2.1]hept-3-yl]carbonyl]-L-phenylalanine]
240	240	0.393			O=C(Nc1ccc(C[C@H](NC(=O)[C@H]2C3CCC(C3)N2S(=O)(=O)c2ccccc2)C(=O)O)cc1)c1c(Cl)cccc1Cl (stereo partly drawn) [Cpd 16b, 4-[(2,6-dichlorobenzoyl)amino]-N-[[(3R)-2-(phenylsulfonyl)-2-azabicyclo[2.2.1]hept-3-yl]carbonyl]-L-phenylalanine]
857	857	9			COc1cccc(OC)c1-c1ccc(C[C@H](NC(=O)[C@H]2C3CCC(CC3)N2S(=O)(=O)c2ccc(C)cc2)C(=O)O)cc1 [Cpd 18a, 4-(2,6-dimethoxyphenyl)-N-[[(3R)-2-[(4-methylphenyl)sulfonyl]-2-azabicyclo[2.2.2]oct-3-yl]carbonyl]-L-phenylalanine]
300	300	3.82			COc1cccc(OC)c1C(=O)Nc1ccc(C[C@H](NC(=O)[C@@H]2C3CCC(C3)N2S(=O)(=O)c2ccccc2)C(=O)O)cc1 (stereo partly drawn) [Cpd 19a, 4-[(2,6-dimethoxybenzoyl)amino]-N-[[(3S)-2-(phenylsulfonyl)-2-azabicyclo[2.2.1]hept-3-yl]carbonyl]-L-phenylalanine]
1210	1210	3.22			COc1cccc(OC)c1C(=O)Nc1ccc(C[C@H](NC(=O)[C@H]2C3CCC(C3)N2S(=O)(=O)c2ccccc2)C(=O)O)cc1 (stereo partly drawn) [Cpd 19b, 4-[(2,6-dimethoxybenzoyl)amino]-N-[[(3R)-2-(phenylsulfonyl)-2-azabicyclo[2.2.1]hept-3-yl]carbonyl]-L-phenylalanine]
	1420			> 10	Cc1ccc(S(=O)(=O)N2C3CCC(CC3)C2C(=O)N[C@@H](Cc2ccc(C#Cc3ccc(C(C)(C)C)cc3)cc2)C(=O)O)cc1 (stereo partly drawn) [Cpd 23, 4-[[4-(1,1-dimethylethyl)phenyl]ethynyl]-N-[[2-[(4-methylphenyl)sulfonyl]-2-azabicyclo[2.2.2]oct-3-yl]carbonyl]-L-phenylalanine]
	1100			> 10	Cc1ccc(S(=O)(=O)N2C3CCC(CC3)C2C(=O)N[C@@H](Cc2ccc(C#Cc3ccccc3)cc2)C(=O)O)cc1 (stereo partly drawn) [Cpd 24, 4-(phenylethynyl)-N-[[2-[(4-methylphenyl)sulfonyl]-2-azabicyclo[2.2.2]oct-3-yl]carbonyl]-L-phenylalanine]
